Experimental data: article PMC8571052 (ChemMedChem, 2021)

Columns and labels:
Format in all cases: cell-based, human
HCC-1806 [1] = assay: Cell death assay; details: HCC-1806, IC50 concentration, 24 h, Annexin V/PI
HUVEC [2] = assay: IC10 concentration in HUVEC cells
MDA-MB-231 [3] = assay: Cell death assay; details: MDA-MB-231, IC50 concentration, 24 h, Annexin V/PI
IMR90 = assay: PrestoBlue cell viability assay, lung fibroblasts IMR90; details: IMR90, 24 h incubation
HUVEC [4] = assay: Endothelial tube formation assay; details: IC10 concentration
MDA-MB-231 [5] = assay: Cell invasion, 3D Transwell assay with Geltrex matrix, MDA-MB-231; details: MDA-MB-231, IC20 concentration, 24 h
MDA-MB-231 [6] = assay: PrestoBlue cell viability assay, MDA-MB-231; details: for IC50: MDA-MB-231, 24 h incubation, PrestoBlue
HCC-1806 [7] = assay: Cell invasion, 3D Transwell assay with Geltrex matrix, HCC-1806; details: 24 h
HCC-1806 [8] = assay: Cell migration, 2D wound-healing scratch assay, HCC-1806; details: 24 h
MDA-MB-231 [9] = assay: Cell cycle profile; details: MDA-MB-231, IC20 concentration, 24 h; non-treated cells 16%
MDA-MB-468 = assay: PrestoBlue cell viability assay, MDA-MB-468; details: MDA-MB-468, 24 h incubation
HCC-1806 [10] = assay: PrestoBlue cell viability assay, HCC-1806; details: for IC50: HCC-1806, 24 h incubation, PrestoBlue
MCF10a = assay: PrestoBlue cell viability assay, non-malignant breast cells MCF10a; details: 24 h incubation

| SMILES | apoptosis (HCC-1806 [1]) [%] | IC10 concentration (HUVEC [2]) [µM] | cells that die by apoptosis (MDA-MB-231 [3]) [%] | IC50 (IMR90) [µM] | disruption in tube length (TL) (HUVEC [4]) [%] | disruption of tube length (first statement) (HUVEC [4]) [%] | invasion reduction (MDA-MB-231 [5]) [%] | IC50 (MDA-MB-231 [6]) [µM] | IC20 (MDA-MB-231 [6]; read-out: IC20 values employed, MDA-MB-231 (same value for both cell lines)) [µM] | invasion reduction (HCC-1806 [7]; HCC-1806, IC20 concentration) [%] | reduction of the antiinvasive properties in HCC-1806 with respect to MDA-MB-231 (HCC-1806 [7]; IC20 concentration) [%] | reduction of migration (HCC-1806 [8]; HCC-1806, IC20 concentration) [%] | decrease in antimigratory properties in HCC-1806 with respect to MDA-MB-231 (HCC-1806 [8]; IC20 concentration) | cells in G2/M arrest (MDA-MB-231 [9]) [%] | IC50 (MDA-MB-468) [µM] | IC50 (HCC-1806 [10]) [µM] | IC20 (HCC-1806 [10]; read-out: IC20 values employed, HCC-1806 (same value for both cell lines)) [µM] | IC50 (MCF10a) [µM] |
| --- | --- | --- | --- | --- | --- | --- | --- | --- | --- | --- | --- | --- | --- | --- | --- | --- | --- | --- |
| Cc1ccc(C(C)C)cc1.[Cl][Ru]([Cl])[PH]12CN3CN(CN(C3)C1)C2 [RAPTA-C, [Ru(η^6-p-cymene)Cl2(1,3,5-triaza-7-phosphaadamantane])] | 27.25 | 150 | 30.8 | > 300 | 22 | 27 | 66.9 | > 300 | 250 | 41.2 | 25.7 | 42.7 | ca. 17.6% | 23 | > 300 | > 300 | 250 | > 300 |
| N.N.[Cl][Pt][Cl] [cisplatin] |  |  |  | 149 ± 13.1 |  |  |  | 132 ± 18 |  |  |  |  |  |  | 44.2 ± 2.1 | 163 ± 5.86 |  | 32.9 ± 6.68 |
